Measurements: ChEMBL document CHEMBL6087391, “Novel bibenzyl compound 8Ae induces apoptosis and inhibits glycolysis by detaching hexokinase 2 from mitochondria in A549 cells” (Bioorg Med Chem, 2024)
Active and inactive are the calls of the source. The rule behind the calls is not given here.

Key:
[1] = system: A549; test: Induction of mitochondria mediated apoptosis in human A549 cells assessed as reduction in HK2 level at […] incubated for 48 hrs by immunofluorescence confocal microscopic analysis; assay type: functional, cell-based
[2] = system: A549; test: Induction of apoptosis in human A549 cells assessed as late apoptotic cells at 10 uM incubated for 48 hrs by Annexin V-FITC/PI staining based flow cytometry; assay type: functional
[3] = system: A549; test: Induction of apoptosis in human A549 cells assessed as early apoptotic cells at 10 uM incubated for 48 hrs by Annexin V-FITC/PI staining based flow cytometry; assay type: functional
[4] = system: A549; test: Inhibition of glycolysis in human A549 cells assessed as downregulation of GLUT1 expression at 1 to 10 uM incubated for 48 hrs by Western blotting analysis; assay type: functional, cell-based; conditions: dose 1-10 µM
[5] = system: A549; test: Antiproliferative activity against human A549 cells assessed as inhibition of cell growth incubated for 48 hrs by MTT assay; assay type: functional, cell-based; conditions: A549, 48 h
[6] = system: A549; test: Inhibition of glycolysis in human A549 cells assessed as downregulation of GLUT1 expression in cytosol fraction at 1 to 10 uM incubated for 48 hrs by Western blotting analysis; assay type: functional, cell-based; conditions: dose 1-10 µM
[7] = system: A549; test: Induction of apoptosis in human A549 cells assessed as upregulation of Cyt C expression in cytosol fraction at 1 to 10 uM incubated for 48 hrs by Western blotting analysis; assay type: functional, cell-based; conditions: dose 1-10 µM
[8] = system: A549; test: Inhibition of glycolysis in human A549 cells assessed as downregulation of HK2 expression in mitochondrial fraction at 1 to 10 uM incubated for 48 hrs by Western blotting analysis; assay type: functional, cell-based; conditions: dose 1-10 µM
[9] = system: A549; test: Induction of apoptosis in human A549 cells assessed as late apoptotic cells at 1 uM incubated for 48 hrs by Annexin V-FITC/PI staining based flow cytometry; assay type: functional
[10] = system: A549; test: Induction of apoptosis in human A549 cells assessed as early apoptotic cells at 5 uM incubated for 48 hrs by Annexin V-FITC/PI staining based flow cytometry; assay type: functional
[11] = system: A549; test: Induction of apoptosis in human A549 cells assessed as early apoptotic cells at 1 uM incubated for 48 hrs by Annexin V-FITC/PI staining based flow cytometry; assay type: functional
[12] = system: A549; test: Inhibition of glycolysis in human A549 cells assessed as reduction in lactate production at 10 uM incubated for 48 hrs by trypan blue staining based spectrophotometry; assay type: functional
[13] = system: MDA-MB-231; test: Antiproliferative activity against human MDA-MB-231 cells assessed as inhibition of cell growth incubated for 48 hrs by MTT assay; assay type: functional, cell-based; conditions: MDA-MB-231, 48 h
[14] = system: A549; test: Induction of apoptosis in human A549 cells assessed as downregulation of Cyt C expression in mitochondrial fraction at 1 to 10 uM incubated for 48 hrs by Western blotting analysis; assay type: functional, cell-based; conditions: dose 1-10 µM
[15] = system: A549; test: Antiproliferative activity against human A549 cells assessed as reduction in cell viability incubated for 48 hrs by MTT assay; assay type: functional, cell-based
[16] = system: A549; test: Inhibition of glycolysis in human A549 cells assessed as reduction in lactate production at 1 uM incubated for 48 hrs by trypan blue staining based spectrophotometry; assay type: functional
[17] = system: Mitochondrial membrane; test: Induction of mitochondrial membrane potential loss in human A549 cells at 1 to 10 uM incubated for 48 hrs by JC-1 dye based fluorescence microscopic analysis; assay type: cell membranes; conditions: dose 1-10 µM
[18] = system: A549; test: Inhibition of glycolysis in human A549 cells assessed as reduction in glucose uptake incubated for 48 hrs by Amplex red dye based spectrophotometry; assay type: functional, cell-based
[19] = system: A549; test: Induction of apoptosis in human A549 cells assessed as late apoptotic cells at 5 uM incubated for 48 hrs by Annexin V-FITC/PI staining based flow cytometry; assay type: functional
[20] = system: A549; test: Induction of apoptosis in human A549 cells assessed as increase in ratio of Bax/Bcl-2 at 1 to 10 uM incubated for 48 hrs by Western blotting analysis; assay type: functional, cell-based; conditions: dose 1-10 µM
[21] = system: BEAS-2B; test: Antiproliferative activity against human BEAS-2B cells assessed as inhibition of cell growth incubated for 48 hrs by MTT assay; assay type: toxicity, cell-based
[22] = system: A549; test: Inhibition of glycolysis in human A549 cells assessed as reduction in lactate production at 5 uM incubated for 48 hrs by trypan blue staining based spectrophotometry; assay type: functional
[23] = system: A549; test: Induction of apoptosis in human A549 cells assessed as upregulation of Bax expression at 1 to 10 uM incubated for 48 hrs by Western blotting analysis; assay type: functional, cell-based; conditions: dose 1-10 µM
[24] = system: A549; test: Induction of mitochondria mediated apoptosis in human A549 cells assessed as reduction in HK2 level at 1 to 10 uM incubated for 48 hrs by immunofluorescence confocal microscopic analysis; assay type: functional, cell-based; conditions: dose 1-10 µM
[25] = system: A549; test: Induction of apoptosis in human A549 cells assessed as downregulation of Bcl-2 expression at 1 to 10 uM incubated for 48 hrs by Western blotting analysis; assay type: functional, cell-based; conditions: dose 1-10 µM
[26] = system: A549; test: Inhibition of glycolysis in human A549 cells assessed as decrease in HK2 activity incubated for 48 hrs by spectrophotometric assay; assay type: functional, cell-based; conditions: A549, 48 h
[27] = system: A549; test: Inhibition of glycolysis in human A549 cells assessed as downregulation of HK2 expression incubated for 48 hrs by Western blotting analysis; assay type: functional, cell-based
[28] = system: A549; test: Induction of apoptosis in human A549 cells assessed as downregulation of AKT phosphorylation at 1 to 10 uM incubated for 48 hrs by Western blotting analysis; assay type: functional, cell-based; conditions: dose 1-10 µM
[29] = system: A549; test: Induction of apoptosis in human A549 cells assessed as downregulation of AKT expression at 1 to 10 uM incubated for 48 hrs by Western blotting analysis; assay type: functional, cell-based; conditions: dose 1-10 µM
[30] = system: A549; test: Inhibition of glycolysis in human A549 cells assessed as downregulation of HK2 expression in cytosol fraction at 1 to 10 uM incubated for 48 hrs by Western blotting analysis; assay type: functional, cell-based; conditions: dose 1-10 µM

Q: How did the Activity [1] turn out when `OC[C@H]1OC(O)C[C@@H](O)[C@@H]1O` (some centres not stated) was run?
A: Active

Q: With `CC(C)=CCC[C@]1(C)C=Cc2c(O)c3c(c(CC=C(C)C)c2O1)O[C@]12C(=C[C@@H]4C[C@H]1C(C)(C)O[C@@]2(C/C=C(/C)C(=O)O)C4=O)C3=O` [GAMBOGIC ACID] as the compound, how does the Activity [2] read?
A: 30.2%

Q: And the Activity [3]?
A: 30.67%

Q: Which inhibition [4] does the source give for `COc1cc(CCc2ccccc2Cl)cc(OC)c1O` here?
A: Active

Q: And the IC50 [5]?
A: 2.72 µM

Q: What about the inhibition [6] of the same compound?
A: inactive

Q: And the Activity [7]?
A: Active

Q: What about the inhibition [8] of the same compound?
A: Dose-dependent-effect

Q: And the Activity [9]?
A: 21.6%

Q: What about the Activity [10] of the same compound?
A: 30.9%

Q: What about the Activity [11] of the same compound?
A: 16.9%

Q: What about the Activity [12] of the same compound?
A: 3.91 mmol/L

Q: And the IC50 [13]?
A: 19.2 µM

Q: And the Activity [14]?
A: Active

Q: And the Activity [2]?
A: 34.5%

Q: And the Activity [15]?
A: Dose-dependent-effect

Q: What about the Activity [16] of the same compound?
A: 4.54 mmol/L

Q: And the Activity [17]?
A: Active

Q: What about the inhibition [18] of the same compound?
A: Dose-dependent-effect

Q: What about the Activity [19] of the same compound?
A: 24.7%

Q: What about the Activity [20] of the same compound?
A: Active

Q: And the Activity [21]?
A: Toxic

Q: What about the Activity [22] of the same compound?
A: 4.38 mmol/L

Q: And the Activity [3]?
A: 33.53%

Q: And the Activity [23]?
A: Active

Q: And the Activity [24]?
A: Active

Q: What about the Activity [25] of the same compound?
A: Active

Q: And the IC50 [26]?
A: ~10 µM

Q: What about the inhibition [27] of the same compound?
A: Dose-dependent-effect

Q: What about the Activity [28] of the same compound?
A: Active

Q: And the Activity [29]?
A: inactive

Q: What about the inhibition [30] of the same compound?
A: inactive
